Assay results taken from patent EP1724268A1, “COMPOUND HAVING TGF-BETA INHIBITORY ACTIVITY AND PHARMACEUTICAL COMPOSITION CONTAINING SAME” (KIRIN BEER KABUSHIKI KAISHA, priority 2004, dated 2005).
Read-outs that look alike come from different tables or passages of the source.

Test system: TGFβ signal
Assay: TGFβ signal inhibitory activity, (SBE)4-Luc reporter in A549 cells (Test Examples 1A and 1B)
Assay type: cell-based, human
Details: Homo sapiens, A549, read-out: TGFβ inhibition rate, %
In short: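 Compounds at 3 µM and 10 µM (some 1 µM) were added with 2 ng/ml TGFβ-1 to A549 cells stably expressing an SBE-driven luciferase, then cultured 4 hr. Chemiluminescent luciferase signal gave % inhibition versus TGFβ-alone and no-TGFβ controls.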

[1] = test compound 3 µM, Reference Examples, Table 1B
[2] = test compound 10 µM, Reference Examples, Table 1B
[3] = 3 µM, compounds of Reference Examples (Test Example 1B)
[4] = 10 µM, compounds of Reference Examples (Test Example 1B)

COc1cc2c(Oc3ccc(C)cc3C(=O)c3ccccc3)ccnc2cc1OCCCCn1ccnc1 [Compound r150]
inhibition at 3 µM [1]: 97% | inhibition at 10 µM [2]: 100%

COc1cc2c(Oc3ccc(C)cc3C(=O)c3ccccc3)ccnc2cc1OCC1CO1 (stereo not shown) [Compound r151]
inhibition at 3 µM [1]: 95% | inhibition at 10 µM [2]: 100%

COc1cc2c(Oc3ccc(C)cc3C(=O)c3ccccc3)ccnc2cc1OCC(O)CNCCO (stereo not shown) [Compound r152]
inhibition at 3 µM [1]: 99% | inhibition at 10 µM [2]: 100%

COc1cc2c(Oc3ccc(C)cc3C(=O)c3ccccc3)ccnc2cc1OCC(O)CN1CCC(N2CCCCC2)CC1 (stereo not shown) [Compound r156]
inhibition at 3 µM [1]: 99% | inhibition at 10 µM [2]: 100%

COc1cc2c(Oc3ccc(C)cc3C(=O)c3ccccc3)ccnc2cc1OCC(O)CN1CCNCC1 (stereo not shown) [Compound r157]
inhibition at 3 µM [1]: 100% | inhibition at 10 µM [2]: 100%

COc1cc2c(Oc3ccc(C)cc3C(=O)c3ccccc3)ccnc2cc1OCC(O)CN1CCN(C)CC1 (stereo not shown) [Compound r158]
inhibition at 3 µM [1]: 100% | inhibition at 10 µM [2]: 100%

COc1cc2c(Oc3ccc(C)cc3C(=O)c3ccccc3)ccnc2cc1OCC(O)CN1CCOCC1 (stereo not shown) [Compound r159]
inhibition at 3 µM [1]: 98% | inhibition at 10 µM [2]: 100%

CCOC(=O)c1ccccc1C(=O)c1ccnc2cc(OC)c(OC)cc12 [Compound r163, Ethyl 2-[(6,7-dimethoxy-4-quinolyl)carbonyl]benzoate]
inhibition at 3 µM [1]: 3% | inhibition at 10 µM [2]: 67%

COc1cc2nccc(Oc3cc(C)c(C)cc3I)c2cc1OC [Compound r164, 4-(2-Iodo-4,5-dimethyl-phenoxy)-6,7-dimethoxy-quinoline]
inhibition at 3 µM [3]: 54% | inhibition at 10 µM [4]: 98%

COc1cc2nccc(Oc3cc(C)c(C)cc3-c3ccccn3)c2cc1OC [Compound r169]
inhibition at 3 µM [3]: 99% | inhibition at 10 µM [4]: 100%

COc1cc2nccc(Oc3ccc(OCc4ccccc4)cc3C(C)=O)c2cc1OC [Compound r175, 1-[5-Benzyloxy-2-(6,7-dimethoxy-quinotin-4-yloxy)-phenyl]-ethanone]
inhibition at 3 µM [3]: 13% | inhibition at 10 µM [4]: 60%

CCOc1ccc(Oc2ccnc3cc(OC)c(OC)cc23)c(C(C)=O)c1 [Compound r178, 1-[2-(6,7-Dimethoxy-quinolin-4-yloxy)-5-ethoxy-phenyl]-ethanone]
inhibition at 3 µM [3]: 66% | inhibition at 10 µM [4]: 97%

CCCOc1ccc(Oc2ccnc3cc(OC)c(OC)cc23)c(C(C)=O)c1 [Compound r179]
inhibition at 3 µM [3]: 18% | inhibition at 10 µM [4]: 68%

COc1cc2nccc(Oc3cc(Cl)c(C)cc3C(C)=O)c2cc1OC [Compound r184]
inhibition at 3 µM [3]: 100% | inhibition at 10 µM [4]: 100%

COc1cc2nccc(Oc3cc(C(C)(C)C)c(OC)cc3C(C)=O)c2cc1OC [Compound r185]
inhibition at 3 µM [3]: 11% | inhibition at 10 µM [4]: 59%

COc1cc2nccc(Oc3cc(C)c(SC)cc3C(C)=O)c2cc1OC [Compound r186]
inhibition at 3 µM [3]: 76% | inhibition at 10 µM [4]: 100%

COc1cc2nccc(Oc3ccc(C)cc3C(=O)c3ccc(OCCCl)cc3)c2cc1OC [Compound r189]
inhibition at 3 µM [3]: 86% | inhibition at 10 µM [4]: 100%

COc1cc2nccc(Oc3ccc(C)cc3C(=O)c3ccc(OCCN4CCCCC4)cc3)c2cc1OC [Compound r190]
inhibition at 3 µM [3]: 30% | inhibition at 10 µM [4]: 86%

COc1cc2nccc(Oc3ccc(C)cc3C(=O)c3ccc(OCCN4CCOCC4)cc3)c2cc1OC [Compound r191]
inhibition at 3 µM [3]: 39% | inhibition at 10 µM [4]: 93%

COc1cc2nccc(Oc3cc(C)c(C)cc3C(C)=NN)c2cc1OC [Compound r193, {1-[2-(6,7-Dimethoxy-quinolin-4-yloxy)-4,5-dimethylphenyl]-ethylidene}-hydrazine]
inhibition at 3 µM [3]: 74% | inhibition at 10 µM [4]: 99%

COc1cc2nccc(Oc3cc(C)c(C)cc3C(C)=NNc3ccccn3)c2cc1OC [Compound r194]
inhibition at 3 µM [3]: 47% | inhibition at 10 µM [4]: 94%

COc1cc2nccc(Oc3cc(C)c(C)cc3C(C)=NO)c2cc1OC [Compound r195]
inhibition at 3 µM [3]: 99% | inhibition at 10 µM [4]: 100%

C=CCON=C(C)c1cc(C)c(C)cc1Oc1ccnc2cc(OC)c(OC)cc12 [Compound r197]
inhibition at 3 µM [3]: 40% | inhibition at 10 µM [4]: 88%

COc1cc2nccc(Oc3cc4ccccc4cc3C(C)=O)c2cc1OC [Compound r200, 1-[3-(6,7-Dimethoxy-quinolin-4-yloxy)-naphthalene-2-yl]-ethanone]
inhibition at 3 µM [3]: 94% | inhibition at 10 µM [4]: 100%

COc1cc2nccc(Oc3cccnc3OC3CCCC3)c2cc1OC [Compound r204, 4-(2-Cyclopentyloxy-pyridin-3-yloxy)-6,7-dimethoxy-quinoline]
inhibition at 3 µM [3]: 14% | inhibition at 10 µM [4]: 77%

COc1ccc(Oc2ccnc3cc(OC)c(OC)cc23)cn1 [Compound r207, 6,7-Dimethoxy-4-(6-methoxy-pyridin-3-yloxy)-quinoline]
inhibition at 3 µM [3]: 77% | inhibition at 10 µM [4]: 99%

COc1cc2nccc(Oc3ccc(C)nc3C)c2cc1OC [Compound r209]
inhibition at 3 µM [3]: 99% | inhibition at 10 µM [4]: 100%

COc1cc2nccc(Oc3ccc(C)nc3C#N)c2cc1OC [Compound r213, 3-(6,7-Dimethoxy-quinolin-4-yloxy)-6-methyl-pyridin-2-carbonitrile]
inhibition at 3 µM [3]: 28% | inhibition at 10 µM [4]: 65%

COc1cc2nccc(Oc3ccc(C)nc3C(OC(C)=O)c3cccc(C)n3)c2cc1OC (stereo not shown) [Compound r219]
inhibition at 3 µM [3]: 20% | inhibition at 10 µM [4]: 67%

COc1cc2nccc(Oc3ccc(C)nc3C(=O)c3ccccc3)c2cc1OC [Compound r220]
inhibition at 3 µM [3]: 99% | inhibition at 10 µM [4]: 100%

COc1cc2nccc(Oc3ccc(C)nc3-c3ccccc3)c2cc1OC [Compound r223, 6,7-Dimethoxy-4-(6-methyl-2-phenyl-pyridin-3-yloxy)-quinoline]
inhibition at 3 µM [3]: 99% | inhibition at 10 µM [4]: 100%

COc1cc2nccc(Oc3ccc(C)nc3-c3ccccc3C)c2cc1OC [Compound r224]
inhibition at 3 µM [3]: 69% | inhibition at 10 µM [4]: 96%

COc1cc2nccc(Oc3ccc(C)nc3-c3ccccc3C(C)=O)c2cc1OC [Compound r225]
inhibition at 3 µM [3]: 39% | inhibition at 10 µM [4]: 78%

COc1cc2nccc(Oc3ccc(C)nc3-c3ccccc3O)c2cc1OC [Compound r226]
inhibition at 3 µM [3]: 60% | inhibition at 10 µM [4]: 96%

COc1cc2nccc(Oc3ccc(C)nc3-c3ccccc3OC)c2cc1OC [Compound r227]
inhibition at 3 µM [3]: 50% | inhibition at 10 µM [4]: 87%

COc1cc2nccc(Oc3ccc(C)nc3-c3ccccc3Cl)c2cc1OC [Compound r228]
inhibition at 3 µM [3]: 88% | inhibition at 10 µM [4]: 100%

COc1cc2nccc(Oc3ccc(C)nc3-c3cccc(C)c3)c2cc1OC [Compound r229]
inhibition at 3 µM [3]: 99% | inhibition at 10 µM [4]: 100%

COc1cc2nccc(Oc3ccc(C)nc3-c3cccc(C(F)(F)F)c3)c2cc1OC [Compound r230]
inhibition at 3 µM [3]: 60% | inhibition at 10 µM [4]: 97%

COc1cc2nccc(Oc3ccc(C)nc3-c3cccc(CO)c3)c2cc1OC [Compound r231]
inhibition at 3 µM [3]: 100% | inhibition at 10 µM [4]: 100%

COc1cc2nccc(Oc3ccc(C)nc3-c3cccc(C(C)=O)c3)c2cc1OC [Compound r232]
inhibition at 3 µM [3]: 66% | inhibition at 10 µM [4]: 79%

COc1cc2nccc(Oc3ccc(C)nc3-c3cccc(C(N)=O)c3)c2cc1OC [Compound r233]
inhibition at 3 µM [3]: 98% | inhibition at 10 µM [4]: 100%

COc1cc2nccc(Oc3ccc(C)nc3-c3cccc(C#N)c3)c2cc1OC [Compound r234]
inhibition at 3 µM [3]: 87% | inhibition at 10 µM [4]: 100%

COc1cc2nccc(Oc3ccc(C)nc3-c3cccc(N)c3)c2cc1OC [Compound r235]
inhibition at 3 µM [3]: 100% | inhibition at 10 µM [4]: 100%

COc1cc2nccc(Oc3ccc(C)nc3-c3cccc(NC(C)=O)c3)c2cc1OC [Compound r236]
inhibition at 3 µM [3]: 90% | inhibition at 10 µM [4]: 100%

COc1cc2nccc(Oc3ccc(C)nc3-c3cccc(O)c3)c2cc1OC [Compound r237]
inhibition at 3 µM [3]: 100% | inhibition at 10 µM [4]: 100%

COc1cccc(-c2nc(C)ccc2Oc2ccnc3cc(OC)c(OC)cc23)c1 [Compound r238]
inhibition at 3 µM [3]: 92% | inhibition at 10 µM [4]: 100%

CCOc1cccc(-c2nc(C)ccc2Oc2ccnc3cc(OC)c(OC)cc23)c1 [Compound r239]
inhibition at 3 µM [3]: 83% | inhibition at 10 µM [4]: 100%

COc1cc2nccc(Oc3ccc(C)nc3-c3cccc(F)c3)c2cc1OC [Compound r240]
inhibition at 3 µM [3]: 100% | inhibition at 10 µM [4]: 100%

COc1cc2nccc(Oc3ccc(C)nc3-c3cccc(Cl)c3)c2cc1OC [Compound r241]
inhibition at 3 µM [3]: 96% | inhibition at 10 µM [4]: 100%

COc1cc2nccc(Oc3ccc(C)nc3-c3ccc(C)cc3)c2cc1OC [Compound r242]
inhibition at 3 µM [3]: 68% | inhibition at 10 µM [4]: 99%

COc1cc2nccc(Oc3ccc(C)nc3-c3ccc(C(C)C)cc3)c2cc1OC [Compound r243]
inhibition at 3 µM [3]: -7% | inhibition at 10 µM [4]: 62%

CCCCc1ccc(-c2nc(C)ccc2Oc2ccnc3cc(OC)c(OC)cc23)cc1 [Compound r244]
inhibition at 3 µM [3]: -3% | inhibition at 10 µM [4]: 63%

COc1cc2nccc(Oc3ccc(C)nc3-c3ccc(CO)cc3)c2cc1OC [Compound r245]
inhibition at 3 µM [3]: 80% | inhibition at 10 µM [4]: 99%

COc1cc2nccc(Oc3ccc(C)nc3-c3ccc(C(C)=O)cc3)c2cc1OC [Compound r246]
inhibition at 3 µM [3]: 64% | inhibition at 10 µM [4]: 93%

COc1cc2nccc(Oc3ccc(C)nc3-c3ccc(N(C)C)cc3)c2cc1OC [Compound r247]
inhibition at 3 µM [3]: 93% | inhibition at 10 µM [4]: 100%

COc1cc2nccc(Oc3ccc(C)nc3-c3ccc(O)cc3)c2cc1OC [Compound r248]
inhibition at 3 µM [3]: 99% | inhibition at 10 µM [4]: 100%
